Reference: patent publication US9221838B2, “Inhibitors of AKT activity” (ALMAC DISCOVERY LIMITED, priority 2009, dated 2015)

Experiments:
Type in all cases: biochemical
AKT1 = target: T1, AKT1 (Homo sapiens, UniProt P31749); assay: AKT Kinase Assay (IMAP fluorescent polarisation) vs AKT1
T1 construct: purchased SignalChem
Summary of the method: (§1)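 Phosphorylation of FAM-Crosstide detected by IMAP binding and fluorescence polarisation (485/528 nm), with IC50 fitted from % inhibition versus vehicle. Compound was incubated 45 min with enzyme, then reacted 1 h at room temperature with ATP and peptide in Tris/MgCl2/DTT buffer. Dose response had fourteen half-log points.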

AKT3 = target: T2, AKT3 (Homo sapiens, UniProt Q9Y243); assay: AKT Kinase Assay (IMAP fluorescent polarisation) vs AKT3
T2 construct: purchased SignalChem
T2 sequence (Q9Y243 whole entry): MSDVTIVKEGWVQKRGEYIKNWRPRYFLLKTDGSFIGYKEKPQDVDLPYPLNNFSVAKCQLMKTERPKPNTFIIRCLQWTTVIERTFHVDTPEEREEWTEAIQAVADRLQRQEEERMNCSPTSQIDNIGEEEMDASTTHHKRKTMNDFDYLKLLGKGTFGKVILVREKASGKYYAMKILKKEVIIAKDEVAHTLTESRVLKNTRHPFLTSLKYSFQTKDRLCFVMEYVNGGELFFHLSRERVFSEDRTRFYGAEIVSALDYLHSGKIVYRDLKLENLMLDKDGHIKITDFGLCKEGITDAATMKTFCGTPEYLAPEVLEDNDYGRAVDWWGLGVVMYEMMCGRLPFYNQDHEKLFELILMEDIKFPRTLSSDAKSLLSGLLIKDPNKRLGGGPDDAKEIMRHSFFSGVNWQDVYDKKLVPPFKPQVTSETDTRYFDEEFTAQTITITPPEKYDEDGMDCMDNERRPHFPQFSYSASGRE
Summary of the method: as §1

AKT2 = target: T3, AKT2 (Homo sapiens, UniProt P31751); assay: AKT Kinase Assay (IMAP fluorescent polarisation) vs AKT2
T3 construct: purchased SignalChem
T3 sequence (P31751 whole entry): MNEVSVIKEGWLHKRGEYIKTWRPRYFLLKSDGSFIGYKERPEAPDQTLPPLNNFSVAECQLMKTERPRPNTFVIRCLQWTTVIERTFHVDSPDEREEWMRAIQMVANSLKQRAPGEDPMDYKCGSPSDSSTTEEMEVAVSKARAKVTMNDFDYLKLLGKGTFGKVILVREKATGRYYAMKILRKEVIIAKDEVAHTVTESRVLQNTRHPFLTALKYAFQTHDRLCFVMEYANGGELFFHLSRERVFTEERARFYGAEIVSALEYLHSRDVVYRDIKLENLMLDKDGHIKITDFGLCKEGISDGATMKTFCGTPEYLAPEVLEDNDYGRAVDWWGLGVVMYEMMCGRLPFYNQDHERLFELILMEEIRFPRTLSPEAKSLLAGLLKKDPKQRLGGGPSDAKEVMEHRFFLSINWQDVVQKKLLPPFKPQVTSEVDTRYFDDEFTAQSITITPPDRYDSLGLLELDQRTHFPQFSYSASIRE
Summary of the method: as §1

T1 sequence (P31749 whole entry): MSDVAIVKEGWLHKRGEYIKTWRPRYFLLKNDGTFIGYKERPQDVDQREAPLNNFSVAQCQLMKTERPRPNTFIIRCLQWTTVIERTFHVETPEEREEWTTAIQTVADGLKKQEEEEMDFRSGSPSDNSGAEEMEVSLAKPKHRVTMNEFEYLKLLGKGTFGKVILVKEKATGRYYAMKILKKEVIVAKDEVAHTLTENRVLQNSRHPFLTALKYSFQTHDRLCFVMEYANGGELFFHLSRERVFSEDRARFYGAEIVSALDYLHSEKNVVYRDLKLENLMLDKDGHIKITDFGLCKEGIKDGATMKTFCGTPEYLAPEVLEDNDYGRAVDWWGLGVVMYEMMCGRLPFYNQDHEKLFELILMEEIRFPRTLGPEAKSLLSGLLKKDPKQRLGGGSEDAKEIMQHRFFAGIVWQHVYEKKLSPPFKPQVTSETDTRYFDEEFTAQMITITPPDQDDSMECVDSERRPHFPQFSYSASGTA

IC50 (AKT1) [µM]	IC50 (AKT3) [µM]	IC50 (AKT2) [µM]	Structure (SMILES)
≤ 0.1	1 to 10	≤ 0.1	C[C@H]1Oc2nc(-c3ccc(C4(N)CCC4)cc3)c(-c3ccccc3)cc2N(CC#N)C1=O [Example 93, (R)-2-(6-(4-(1-aminocyclobutyl)phenyl)-3-methyl-2-oxo-7-phenyl-2,3-dihydro-1H-pyrido[2,3-b][1,4]oxazin-1-yl)acetonitrile]
0.1 to 1	> 10	1 to 10	CN1C(=O)C(CCO)Oc2nc(-c3ccc(C4(N)CCC4)cc3)c(-c3ccccc3)cc21 (stereo not drawn) [Example 77, 6-(4-(1-aminocyclobutyl)phenyl)-3-(2-hydroxyethyl)-1-methyl-7-phenyl-1H-pyrido[2,3-b][1,4]oxazin-2(3H)-one]
0.1 to 1	> 10	0.1 to 1	CS(=O)(=O)N1CCOc2nc(-c3ccc(C4(N)CCC4)cc3)c(-c3ccccc3)cc21 [Example 70, 1-(4-(1-(methylsulfonyl)-7-phenyl-2,3-dihydro-1H-pyrido[2,3-b][1,4]oxazin-6-yl)phenyl)cyclobutanamine]
≤ 0.1	1 to 10	≤ 0.1	CCCN1C(=O)COc2nc(-c3ccc(C4(N)CCC4)cc3)c(-c3ccccc3)cc21 [Example 105, 6-(4-(1-aminocyclobutyl)phenyl)-7-phenyl-1-propyl-1H-pyrido[2,3-b][1,4]oxazin-2(3H)-one]
0.1 to 1	> 10	1 to 10	CSc1[nH]nc2c1CCc1nc(-c3ccc(C4(N)CCC4)cc3)c(-c3ccccc3)cc1-2 [Example 9, 1-(4-(3-(methylthio)-8-phenyl-4,5-dihydro-2H-pyrazolo[3,4-f]quinolin-7-yl)phenyl)cyclobutanamine]
1 to 10	1 to 10	1 to 10	NC1(c2ccc(-c3nc4c(cc3-c3ccccc3)NC(=O)CO4)cc2)CCC1 [Example 30, 6-(4-(1-aminocyclobutyl)phenyl)-7-phenyl-1H-pyrido[2,3-b][1,4]oxazin-2(3H)-one]
≤ 0.1	0.1 to 1	≤ 0.1	N#CCN1C(=O)COc2nc(-c3ccc(C4(N)CCC4)cc3)c(-c3ccccc3)cc21 [Example 33, 2-(6-(4-(1-aminocyclobutyl)phenyl)-2-oxo-7-phenyl-2,3-dihydro-1H-pyrido[2,3-b][1,4]oxazin-1-yl)acetonitrile]
1 to 10	> 10	0.1 to 1	CCN1C(=O)COc2nc(-c3ccc(CN)cc3)c(-c3ccccc3)cc21 [Example 151, 6-(4-(Aminomethyl)phenyl)-1-ethyl-7-phenyl-1H-pyrido[2,3-b][1,4]oxazin-2(3H)-one]
0.1 to 1	0.1 to 1	0.1 to 1	CCOC(=O)CN1C(=O)COc2nc(-c3ccc(C4(N)CCC4)cc3)c(-c3ccccc3)cc21 [Example 49, ethyl 2-(6-(4-(1-aminocyclobutyl)phenyl)-2-oxo-7-phenyl-2,3-dihydro-1H-pyrido[2,3-b][1,4]oxazin-1-yl)acetate]
0.1 to 1	1 to 10	0.1 to 1	NC(=O)c1nnc2n1-c1cc(-c3ccccc3)c(-c3ccc(C4(N)CCC4)cc3)nc1OC2 [Example 119, 7-(4-(1-aminocyclobutyl)phenyl)-8-phenyl-4H-pyrido[2,3-b][1,2,4]triazolo[4,3-d][1,4]oxazine-1-carboxamide]
0.1 to 1	> 10	1 to 10	Cn1cc2c(n1)-c1cc(-c3ccccc3)c(-c3ccc(C4(N)CCC4)cc3)nc1CC2 [Example 5, 1-(4-(2-methyl-8-phenyl-4,5-dihydro-2H-pyrazolo[3,4-f]quinolin-7-yl)phenyl)cyclobutanamine]
0.1 to 1	1 to 10	≤ 0.1	N#CCN1C(=O)COc2nc(-c3ccc(CN)cc3)c(-c3ccccc3)cc21 [Example 135, 2-(6-(4-(aminomethyl)phenyl)-2-oxo-7-phenyl-2,3-dihydro-1H-pyrido[2,3-b][1,4]oxazin-1-yl)acetonitrile]
≤ 0.1	1 to 10	0.1 to 1	CN1C(=O)COc2nc(-c3ccc([C@]4(N)C[C@](C)(O)C4)cc3)c(-c3ccccc3)cc21 [Example 113, 6-(4-((1r,3r)-1-amino-3-hydroxy-3-methylcyclobutyl)phenyl)-1-methyl-7-phenyl-1H-pyrido[2,3-b][1,4]oxazin-2(3H)-one]
≤ 0.1	1 to 10	≤ 0.1	C[C@]1(O)C[C@@](N)(c2ccc(-c3nc4c(cc3-c3ccccc3)N(CC#N)C(=O)CO4)cc2)C1 [Example 150, 2-(6-(4-((1r,3r)-1-amino-3-hydroxy-3-methylcyclobutyl)phenyl)-2-oxo-7-phenyl-2,3-dihydro-1H-pyrido[2,3-b][1,4]oxazin-1-yl)acetonitrile]

Second part, the molecule before the results:

Structure (SMILES)	IC50 (AKT1) [µM]	IC50 (AKT3) [µM]	IC50 (AKT2) [µM]
N#CCN1CCc2nc(-c3ccc(C4(N)CCC4)cc3)c(-c3ccccc3)cc2C1=O [Example 24, 2-(2-(4-(1-aminocyclobutyl)phenyl)-5-oxo-3-phenyl-7,8-dihydro-1,6-naphthyridin-6(5H)-yl)acetonitrile]	1 to 10	> 10	0.1 to 1
CN1C(=O)COc2nc(-c3ccc([C@]4(N)C[C@H](O)C4)cc3)c(-c3ccccc3)cc21 [Example 137, 6-(4-((1r,3r)-1-amino-3-hydroxycyclobutyl)phenyl)-1-methyl-7-phenyl-1H-pyrido[2,3-b][1,4]oxazin-2(3H)-one]	≤ 0.1	1 to 10	0.1 to 1
CCN1C(=O)COc2nc(-c3ccc([C@]4(N)C[C@@H](O)C4)cc3)c(-c3ccccc3)cc21 [Example 139, 6-(4-((1s,3s)-1-amino-3-hydroxycyclobutyl)phenyl)-1-ethyl-7-phenyl-1H-pyrido[2,3-b][1,4]oxazin-2(3H)-one]	0.1 to 1	1 to 10	0.1 to 1
NC1(c2ccc(-c3nc4c(cc3-c3ccccc3)N(C3CCOCC3)C(=O)CO4)cc2)CCC1 [Example 65, 6-(4-(1-aminocyclobutyl)phenyl)-7-phenyl-1-(tetrahydro-2H-pyran-4-yl)-1H-pyrido[2,3-b][1,4]oxazin-2(3H)-one]	1 to 10	> 10	1 to 10
N#CCn1nc2n(c1=O)-c1cc(-c3ccccc3)c(-c3ccc(C4(N)CCC4)cc3)nc1OC2 [Example 101, 2-(7-(4-(1-aminocyclobutyl)phenyl)-1-oxo-8-phenyl-1H-pyrido[2,3-b][1,2,4]triazolo[4,3-d][1,4]oxazin-2(4H)-yl)acetonitrile]	0.1 to 1	1 to 10	0.1 to 1
NC1(c2ccc(-c3nc4c(cc3-c3ccccc3)N(CCF)C(=O)CCN4)cc2)CCC1 [Example 117, 7-(4-(1-aminocyclobutyl)phenyl)-1-(2-fluoroethyl)-8-phenyl-4,5-dihydro-1H-pyrido[2,3-b][1,4]diazepin-2(3H)-one]	1 to 10	1 to 10	1 to 10
Nc1nnc2n1-c1cc(-c3ccccc3)c(-c3ccc(C4(N)CCC4)cc3)nc1OC2 [Example 50, 7-(4-(1-aminocyclobutyl)phenyl)-8-phenyl-4H-pyrido[2,3-b][1,2,4]triazolo[4,3-d][1,4]oxazin-1-amine]	≤ 0.1	1 to 10	0.1 to 1
CN1C(=O)CCNc2nc(-c3ccc(C4(N)CCC4)cc3)c(-c3ccccc3)cc21 [Example 114, 7-(4-(1-aminocyclobutyl)phenyl)-1-methyl-8-phenyl-4,5-dihydro-1H-pyrido[2,3-b][1,4]diazepin-2(3H)-one]	1 to 10	> 10	1 to 10
NC1(c2ccc(-c3nc4c(cc3-c3ccccc3)-n3c(nnc3C3CC3)CO4)cc2)CCC1 [Example 110, 1-(4-(1-cyclopropyl-8-phenyl-4H-pyrido[2,3-b][1,2,4]triazolo[4,3-d][1,4]oxazin-7-yl)phenyl)cyclobutanamine]	0.1 to 1	0.1 to 1	0.1 to 1
Cc1nc2c([nH]1)CCc1nc(-c3ccc(C4(N)CCC4)cc3)c(-c3ccccc3)cc1-2 [Example 15, 1-(4-(2-methyl-8-phenyl-4,5-dihydro-3H-imidazo[4,5-f]quinolin-7-yl)phenyl)cyclobutanamine]	0.1 to 1	1 to 10	1 to 10
CS(=O)(=O)CN1C(=O)COc2nc(-c3ccc(C4(N)CCC4)cc3)c(-c3ccccc3)cc21 [Example 82, 6-(4-(1-aminocyclobutyl)phenyl)-1-(methylsulfonylmethyl)-7-phenyl-1H-pyrido[2,3-b][1,4]oxazin-2(3H)-one]	1 to 10	1 to 10	≤ 0.1
N#CCN1C(=O)COc2nc(-c3ccc([C@]4(N)C[C@@H](O)C4)cc3)c(-c3ccccc3)cc21 [Example 147, 2-(6-(4-((1s,3s)-1-amino-3-hydroxycyclobutyl)phenyl)-2-oxo-7-phenyl-2,3-dihydro-1H-pyrido[2,3-b][1,4]oxazin-1-yl)acetonitrile]	0.1 to 1	> 10	0.1 to 1
C#CCN1C(=O)COc2nc(-c3ccc(C4(N)CCC4)cc3)c(-c3ccccc3)cc21 [Example 32, 6-(4-(1-aminocyclobutyl)phenyl)-7-phenyl-1-(prop-2-yn-1-yl)-1H-pyrido[2,3-b][1,4]oxazin-2(3H)-one]	0.1 to 1	> 10	0.1 to 1
CC1(C)Cc2nc(-c3ccc(C4(N)CCC4)cc3)c(-c3ccccc3)cc2-c2n[nH]cc21 [Example 19, 1-(4-(4,4-dimethyl-8-phenyl-4,5-dihydro-2H-pyrazolo[3,4-f]quinolin-7-yl)phenyl)cyclobutanamine]	0.1 to 1	> 10	0.1 to 1
NC1(c2ccc(-c3nc4c(cc3-c3ccccc3)-n3c(nnc3C(F)F)CO4)cc2)CCC1 [Example 98, 1-(4-(1-(difluoromethyl)-8-phenyl-4H-pyrido[2,3-b][1,2,4]triazolo[4,3-d][1,4]oxazin-7-yl)phenyl)cyclobutanamine]	≤ 0.1	0.1 to 1	0.1 to 1
